According to article PMC10174618, “Monoterpenoid aryl hydrocarbon receptor allosteric antagonists protect against ultraviolet skin damage in female mice” (Nature Communications, 2023):

Experiments:
Experiment in all cases: biochemical
Parameters in all cases: KINOMEscan scanMAX active site-directed competition binding assay, percent of control, 468 kinases
Conditions in all cases: competition binding, percent of control
[1] = biological target: MET (Homo sapiens, UniProt P08581)
Method in brief: (§1)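 KINOMEscan active site-directed competition binding assay against 468 human kinases with 100 μM S-carvone. Binding expressed as % of control, with 35% of control as the inhibition threshold.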

[2] = biological target: T1, PIP5K2B (Homo sapiens, UniProt P78356)
T1 construct: gene PIP4K2B
Method in brief: as §1

[3] = biological target: HASPIN (Homo sapiens, UniProt Q8TF76)
Method in brief: as §1

[4] = biological target: T2, SNARK (Homo sapiens, UniProt Q9H093)
T2 construct: gene NUAK2
Method in brief: as §1

[5] = biological target: T3, ABL1-nonphosphorylated (Homo sapiens, UniProt P00519)
T3 construct: nonphosphorylated
Method in brief: as §1

[6] = biological target: FYN (Homo sapiens, UniProt P06241)
Method in brief: as §1

[7] = biological target: T4, PRKR (Homo sapiens, UniProt P19525)
T4 construct: gene EIF2AK2
Method in brief: as §1

[8] = biological target: AAK1 (Homo sapiens, UniProt Q2M2I8)
Method in brief: as §1

[9] = biological target: MKNK2 (Homo sapiens, UniProt Q9HBH9)
Method in brief: as §1

[10] = biological target: FLT3(R834Q) (Homo sapiens, UniProt P36888, R834Q)
Method in brief: as §1

[11] = biological target: WNK4 (Homo sapiens, UniProt Q96J92)
Method in brief: as §1

[12] = biological target: T5, QSK (Homo sapiens, UniProt Q9Y2K2)
T5 construct: gene SIK3
Method in brief: as §1

[13] = biological target: BUB1 (Homo sapiens, UniProt O43683)
Method in brief: as §1

[14] = biological target: FLT3(ITD,F691L) (Homo sapiens, UniProt P36888, F691L/ITD)
Method in brief: as §1

[15] = biological target: T6, JNK3 (Homo sapiens, UniProt P53779)
T6 construct: gene MAPK10
Method in brief: as §1

[16] = biological target: BTK (Homo sapiens, UniProt Q06187)
Method in brief: as §1

[17] = biological target: SRPK2 (Homo sapiens, UniProt P78362)
Method in brief: as §1

[18] = biological target: PLK1 (Homo sapiens, UniProt P53350)
Method in brief: as §1

[19] = biological target: HCK (Homo sapiens, UniProt P08631)
Method in brief: as §1

[20] = biological target: ULK1 (Homo sapiens, UniProt O75385)
Method in brief: as §1

[21] = biological target: T7, ABL1(T315I)-phosphorylated (Homo sapiens, UniProt P00519, T315I)
T7 construct: phosphorylated
Method in brief: as §1

[22] = biological target: T8, TRKB (Homo sapiens, UniProt Q16620)
T8 construct: gene NTRK2
Method in brief: as §1

BUB1, sequence (O43683 whole entry): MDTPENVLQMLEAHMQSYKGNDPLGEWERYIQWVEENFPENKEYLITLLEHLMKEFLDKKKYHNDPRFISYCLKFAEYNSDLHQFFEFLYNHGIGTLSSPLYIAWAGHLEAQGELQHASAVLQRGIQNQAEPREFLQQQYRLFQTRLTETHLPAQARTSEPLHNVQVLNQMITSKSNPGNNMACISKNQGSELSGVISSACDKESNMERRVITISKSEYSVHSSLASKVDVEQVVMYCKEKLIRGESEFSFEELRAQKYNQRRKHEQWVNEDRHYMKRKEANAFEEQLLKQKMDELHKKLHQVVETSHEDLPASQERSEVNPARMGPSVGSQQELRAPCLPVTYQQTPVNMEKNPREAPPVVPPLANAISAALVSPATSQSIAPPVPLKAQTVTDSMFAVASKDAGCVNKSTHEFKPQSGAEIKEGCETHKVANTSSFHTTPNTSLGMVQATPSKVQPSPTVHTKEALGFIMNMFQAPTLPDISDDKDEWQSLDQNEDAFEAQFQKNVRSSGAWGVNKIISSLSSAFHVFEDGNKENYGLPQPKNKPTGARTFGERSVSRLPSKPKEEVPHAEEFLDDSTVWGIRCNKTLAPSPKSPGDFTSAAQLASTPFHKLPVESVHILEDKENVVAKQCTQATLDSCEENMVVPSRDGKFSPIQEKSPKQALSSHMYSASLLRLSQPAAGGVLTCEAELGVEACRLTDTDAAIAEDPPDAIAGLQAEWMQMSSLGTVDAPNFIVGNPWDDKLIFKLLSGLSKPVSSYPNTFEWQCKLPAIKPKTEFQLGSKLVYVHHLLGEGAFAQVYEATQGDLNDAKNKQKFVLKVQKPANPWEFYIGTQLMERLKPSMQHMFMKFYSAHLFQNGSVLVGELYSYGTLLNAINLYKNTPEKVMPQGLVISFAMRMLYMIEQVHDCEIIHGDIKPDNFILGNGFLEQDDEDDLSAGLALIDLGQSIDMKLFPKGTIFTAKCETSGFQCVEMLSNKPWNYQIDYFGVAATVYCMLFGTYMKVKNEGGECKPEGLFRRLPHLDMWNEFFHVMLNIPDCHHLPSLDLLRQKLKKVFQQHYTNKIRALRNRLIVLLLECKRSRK
MKNK2, sequence (Q9HBH9 whole entry): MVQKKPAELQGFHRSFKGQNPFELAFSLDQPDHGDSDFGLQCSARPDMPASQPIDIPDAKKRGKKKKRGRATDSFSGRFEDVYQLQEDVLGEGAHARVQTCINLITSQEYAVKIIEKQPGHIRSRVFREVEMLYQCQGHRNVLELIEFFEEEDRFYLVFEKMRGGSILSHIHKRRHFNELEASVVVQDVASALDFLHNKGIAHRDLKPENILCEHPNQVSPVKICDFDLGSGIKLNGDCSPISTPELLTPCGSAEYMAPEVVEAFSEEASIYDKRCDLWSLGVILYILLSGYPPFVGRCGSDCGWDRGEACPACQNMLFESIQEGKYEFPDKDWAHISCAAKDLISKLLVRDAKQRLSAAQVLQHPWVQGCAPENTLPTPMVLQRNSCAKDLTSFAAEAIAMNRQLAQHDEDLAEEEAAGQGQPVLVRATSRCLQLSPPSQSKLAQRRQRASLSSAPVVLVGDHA
MET, sequence (P08581 whole entry): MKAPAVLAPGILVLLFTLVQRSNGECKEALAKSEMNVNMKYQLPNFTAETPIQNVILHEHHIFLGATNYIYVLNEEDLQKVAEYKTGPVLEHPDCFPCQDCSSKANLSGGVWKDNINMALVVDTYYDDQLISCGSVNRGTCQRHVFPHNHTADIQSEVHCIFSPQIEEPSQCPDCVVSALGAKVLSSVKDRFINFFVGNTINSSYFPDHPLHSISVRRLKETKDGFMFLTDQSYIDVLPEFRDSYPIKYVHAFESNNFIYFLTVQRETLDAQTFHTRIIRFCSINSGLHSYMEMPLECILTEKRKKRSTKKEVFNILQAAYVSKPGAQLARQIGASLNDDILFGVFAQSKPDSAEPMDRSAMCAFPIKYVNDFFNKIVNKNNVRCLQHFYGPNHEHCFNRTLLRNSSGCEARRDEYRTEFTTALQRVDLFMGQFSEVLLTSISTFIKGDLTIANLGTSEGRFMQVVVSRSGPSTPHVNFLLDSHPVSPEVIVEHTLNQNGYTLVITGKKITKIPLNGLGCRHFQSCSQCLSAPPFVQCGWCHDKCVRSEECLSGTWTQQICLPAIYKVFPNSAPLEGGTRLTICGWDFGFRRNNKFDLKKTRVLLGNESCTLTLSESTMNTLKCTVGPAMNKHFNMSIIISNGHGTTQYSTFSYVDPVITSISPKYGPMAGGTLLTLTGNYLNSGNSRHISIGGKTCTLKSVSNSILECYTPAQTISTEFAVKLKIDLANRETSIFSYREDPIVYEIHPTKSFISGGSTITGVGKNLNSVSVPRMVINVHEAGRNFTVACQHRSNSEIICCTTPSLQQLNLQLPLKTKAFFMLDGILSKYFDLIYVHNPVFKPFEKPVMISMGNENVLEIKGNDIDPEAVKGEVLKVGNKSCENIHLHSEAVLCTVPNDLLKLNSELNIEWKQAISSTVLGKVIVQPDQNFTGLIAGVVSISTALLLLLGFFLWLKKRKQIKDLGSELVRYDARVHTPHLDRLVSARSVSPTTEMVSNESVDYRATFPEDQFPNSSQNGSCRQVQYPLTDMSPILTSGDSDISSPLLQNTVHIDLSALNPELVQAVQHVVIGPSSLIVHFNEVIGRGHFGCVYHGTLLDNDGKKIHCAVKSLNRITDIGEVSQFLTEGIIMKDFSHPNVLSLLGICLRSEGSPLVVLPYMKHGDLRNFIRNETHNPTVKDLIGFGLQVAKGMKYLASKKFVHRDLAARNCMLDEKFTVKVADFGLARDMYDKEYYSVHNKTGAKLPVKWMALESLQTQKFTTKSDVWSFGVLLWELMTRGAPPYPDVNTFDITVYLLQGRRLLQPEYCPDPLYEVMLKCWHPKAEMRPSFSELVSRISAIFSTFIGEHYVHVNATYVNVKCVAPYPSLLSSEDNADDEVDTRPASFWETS
T6 sequence (P53779 whole entry): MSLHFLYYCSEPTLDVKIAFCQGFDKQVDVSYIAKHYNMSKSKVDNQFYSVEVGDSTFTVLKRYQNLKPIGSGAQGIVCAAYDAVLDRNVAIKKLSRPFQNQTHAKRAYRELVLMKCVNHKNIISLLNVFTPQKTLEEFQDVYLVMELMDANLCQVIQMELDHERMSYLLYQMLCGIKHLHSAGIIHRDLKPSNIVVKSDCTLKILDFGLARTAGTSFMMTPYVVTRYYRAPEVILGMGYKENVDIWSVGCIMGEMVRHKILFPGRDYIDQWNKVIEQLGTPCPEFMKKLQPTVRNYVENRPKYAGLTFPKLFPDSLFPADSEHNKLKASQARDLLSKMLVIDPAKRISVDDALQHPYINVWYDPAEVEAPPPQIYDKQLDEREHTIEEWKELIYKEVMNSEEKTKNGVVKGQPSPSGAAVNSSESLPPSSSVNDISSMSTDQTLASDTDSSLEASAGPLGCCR
T4 sequence (P19525 whole entry): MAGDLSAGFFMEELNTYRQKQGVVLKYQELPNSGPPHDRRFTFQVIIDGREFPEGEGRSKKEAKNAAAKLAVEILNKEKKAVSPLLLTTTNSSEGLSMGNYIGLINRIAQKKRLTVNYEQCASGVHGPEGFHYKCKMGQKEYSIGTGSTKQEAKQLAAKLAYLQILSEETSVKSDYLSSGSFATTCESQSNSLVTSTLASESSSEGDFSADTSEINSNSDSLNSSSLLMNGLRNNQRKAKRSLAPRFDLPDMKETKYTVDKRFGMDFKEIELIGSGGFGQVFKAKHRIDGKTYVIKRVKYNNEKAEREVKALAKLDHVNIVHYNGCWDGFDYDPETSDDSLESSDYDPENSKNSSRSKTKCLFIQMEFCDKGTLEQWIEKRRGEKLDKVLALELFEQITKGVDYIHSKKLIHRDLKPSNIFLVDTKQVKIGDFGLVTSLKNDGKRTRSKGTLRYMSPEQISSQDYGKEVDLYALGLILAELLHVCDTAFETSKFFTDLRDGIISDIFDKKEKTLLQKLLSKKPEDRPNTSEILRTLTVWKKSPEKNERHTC
HASPIN, sequence (Q8TF76 whole entry): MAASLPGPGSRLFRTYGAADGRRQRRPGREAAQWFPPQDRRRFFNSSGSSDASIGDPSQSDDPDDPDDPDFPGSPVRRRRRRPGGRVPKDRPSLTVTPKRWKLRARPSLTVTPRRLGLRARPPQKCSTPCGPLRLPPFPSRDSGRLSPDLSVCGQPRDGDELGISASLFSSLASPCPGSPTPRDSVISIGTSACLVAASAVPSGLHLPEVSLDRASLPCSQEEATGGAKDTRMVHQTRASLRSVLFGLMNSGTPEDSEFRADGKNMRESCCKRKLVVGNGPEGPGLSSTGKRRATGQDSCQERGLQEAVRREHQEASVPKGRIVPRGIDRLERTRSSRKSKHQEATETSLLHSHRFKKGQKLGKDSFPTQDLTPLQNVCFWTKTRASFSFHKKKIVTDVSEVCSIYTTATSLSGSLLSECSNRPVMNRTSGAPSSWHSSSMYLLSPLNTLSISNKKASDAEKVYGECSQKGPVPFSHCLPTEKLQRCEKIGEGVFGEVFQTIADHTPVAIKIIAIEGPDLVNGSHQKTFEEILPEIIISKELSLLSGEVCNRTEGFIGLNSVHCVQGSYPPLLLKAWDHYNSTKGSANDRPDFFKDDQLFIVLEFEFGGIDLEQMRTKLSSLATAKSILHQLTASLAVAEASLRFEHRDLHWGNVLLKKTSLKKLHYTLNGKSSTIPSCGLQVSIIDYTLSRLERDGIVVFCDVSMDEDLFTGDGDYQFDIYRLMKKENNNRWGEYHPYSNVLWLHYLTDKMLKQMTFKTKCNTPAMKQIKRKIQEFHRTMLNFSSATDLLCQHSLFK

remaining binding at 100 µM [1]: 90%
remaining binding at 100 µM [2]: 100%
remaining binding at 100 µM [3]: 74%
remaining binding at 100 µM [4]: 81%
remaining binding at 100 µM [5]: 76%
remaining binding at 100 µM [6]: 90%
remaining binding at 100 µM [7]: 74%
remaining binding at 100 µM [8]: 77%
remaining binding at 100 µM [9]: 82%
remaining binding at 100 µM [10]: 83%
remaining binding at 100 µM [11]: 77%
remaining binding at 100 µM [12]: 89%
remaining binding at 100 µM [13]: 85%
remaining binding at 100 µM [14]: 71%
remaining binding at 100 µM [15]: 88%
remaining binding at 100 µM [16]: 70%
remaining binding at 100 µM [17]: 99%
remaining binding at 100 µM [18]: 68%
remaining binding at 100 µM [19]: 76%
remaining binding at 100 µM [20]: 100%
remaining binding at 100 µM [21]: 88%
remaining binding at 100 µM [22]: 78%
SMILES: C=C(C)[C@H]1CC=C(C)C(=O)C1 [S-carvone]
